Where two headings read alike, the source gives them in different places.
Assays:
Assay in all cases: PDSP off-target radioligand binding assay
5-HT2B = target: T1, 5-HT2B (Homo sapiens, UniProt P41595)
T1 construct: NIMH PDSP
Method: (§1) Table S1. Off binding data of CW24.
(§2) The off-target binding assays were performed at PDSP with their standard protocol (https://pdspdb.unc.edu/pdspWeb/content/UNC-CH%20Protocol%20Book.pdf). In radioligand binding assays, CW24 was tested at a single concentration (10 µM) and in quadruplicate in 96-well plates. The binding assays were carried out in a final of volume of 125 µl per well in appropriate binding buffers. The hot ligand concentration is usually at a concentration close to the Kd (unless otherwise indicated). Total binding and nonspecific binding are determined in the absence and presence of 10 µM of the appropriate reference compound, respectively. In brief, plates are usually incubated at room temperature and in the dark for 90 mins. Reactions are stopped by vacuum filtration onto 0.3% polyethyleneimine (PEI) soaked 96-well filter mats using a 96-well Filtermate harvester, followed by three washes with cold wash buffers (for details, see Tables 2 to 24). Scintillation cocktail is then melted onto the microwave-dried filters on a hot plate and radioactivity is counted in a Microbeta counter.
(§3) Receptor % Inhibition 1 % Inhibition 2 % Inhibition 3 % Inhibition 4 Mean±SD %

5-HT1A = target: T2, 5-HT1A (Homo sapiens, UniProt P08908)
T2 construct: NIMH PDSP
T2 sequence (P08908 1-422): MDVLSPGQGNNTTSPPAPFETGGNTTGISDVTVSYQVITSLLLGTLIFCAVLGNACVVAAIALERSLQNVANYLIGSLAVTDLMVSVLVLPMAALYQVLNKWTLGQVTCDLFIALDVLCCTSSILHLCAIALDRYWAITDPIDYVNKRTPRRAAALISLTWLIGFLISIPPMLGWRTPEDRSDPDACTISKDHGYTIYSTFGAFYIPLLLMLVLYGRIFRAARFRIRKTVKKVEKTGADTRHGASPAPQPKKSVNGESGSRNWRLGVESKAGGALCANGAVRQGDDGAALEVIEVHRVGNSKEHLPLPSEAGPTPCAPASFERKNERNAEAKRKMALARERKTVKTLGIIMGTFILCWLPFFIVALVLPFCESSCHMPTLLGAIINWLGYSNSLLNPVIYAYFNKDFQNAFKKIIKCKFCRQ
Method: as §1, §2, §3

H1 = H1 (Homo sapiens, UniProt P35367)
Sequence of H1 (P35367 whole entry): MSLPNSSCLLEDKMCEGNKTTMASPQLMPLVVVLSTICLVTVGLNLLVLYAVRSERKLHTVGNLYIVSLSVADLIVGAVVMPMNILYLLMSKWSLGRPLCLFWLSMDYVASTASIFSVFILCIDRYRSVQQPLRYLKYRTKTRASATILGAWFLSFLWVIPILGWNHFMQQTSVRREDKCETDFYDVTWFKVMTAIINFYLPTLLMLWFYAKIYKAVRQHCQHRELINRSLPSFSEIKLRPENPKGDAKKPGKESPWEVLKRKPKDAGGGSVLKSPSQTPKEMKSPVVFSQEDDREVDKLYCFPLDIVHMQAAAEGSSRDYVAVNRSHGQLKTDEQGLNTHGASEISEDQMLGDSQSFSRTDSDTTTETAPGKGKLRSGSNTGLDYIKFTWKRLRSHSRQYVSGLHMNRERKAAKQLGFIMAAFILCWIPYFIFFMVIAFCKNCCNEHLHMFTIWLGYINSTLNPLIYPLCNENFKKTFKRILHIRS
Method: as §1, §2, §3

Alpha1A = target: T3, Alpha1A (Homo sapiens, UniProt P35348)
T3 construct: NIMH PDSP
T3 sequence (P35348 1-466): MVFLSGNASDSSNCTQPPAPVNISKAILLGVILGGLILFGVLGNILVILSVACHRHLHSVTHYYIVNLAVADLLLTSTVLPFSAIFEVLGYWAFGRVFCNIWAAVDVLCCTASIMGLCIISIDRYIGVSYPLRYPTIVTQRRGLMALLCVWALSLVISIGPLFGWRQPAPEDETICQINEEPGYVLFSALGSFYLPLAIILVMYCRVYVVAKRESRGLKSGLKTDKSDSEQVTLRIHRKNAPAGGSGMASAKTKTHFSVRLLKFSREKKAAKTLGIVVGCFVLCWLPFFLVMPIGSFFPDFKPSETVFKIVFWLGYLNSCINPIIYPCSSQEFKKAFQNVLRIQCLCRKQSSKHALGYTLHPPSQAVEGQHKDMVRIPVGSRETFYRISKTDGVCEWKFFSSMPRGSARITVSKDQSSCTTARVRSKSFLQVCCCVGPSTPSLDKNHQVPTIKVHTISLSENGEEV
Method: as §1, §2, §3

H2 = H2 (Homo sapiens, UniProt P25021)
Sequence of H2 (P25021 whole entry): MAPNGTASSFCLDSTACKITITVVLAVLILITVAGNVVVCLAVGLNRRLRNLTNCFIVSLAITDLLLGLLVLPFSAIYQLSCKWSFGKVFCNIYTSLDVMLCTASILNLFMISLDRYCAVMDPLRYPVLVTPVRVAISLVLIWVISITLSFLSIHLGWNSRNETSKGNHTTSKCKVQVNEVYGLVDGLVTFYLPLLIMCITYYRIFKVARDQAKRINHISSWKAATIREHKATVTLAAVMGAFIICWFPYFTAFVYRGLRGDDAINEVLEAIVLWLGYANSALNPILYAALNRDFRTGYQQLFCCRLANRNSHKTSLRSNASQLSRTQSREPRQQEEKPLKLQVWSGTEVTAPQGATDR
Method: as §1, §2, §3

5-HT2C = target: T4, 5-HT2C (Homo sapiens, UniProt P28335)
T4 construct: NIMH PDSP
T4 sequence (P28335 33-458): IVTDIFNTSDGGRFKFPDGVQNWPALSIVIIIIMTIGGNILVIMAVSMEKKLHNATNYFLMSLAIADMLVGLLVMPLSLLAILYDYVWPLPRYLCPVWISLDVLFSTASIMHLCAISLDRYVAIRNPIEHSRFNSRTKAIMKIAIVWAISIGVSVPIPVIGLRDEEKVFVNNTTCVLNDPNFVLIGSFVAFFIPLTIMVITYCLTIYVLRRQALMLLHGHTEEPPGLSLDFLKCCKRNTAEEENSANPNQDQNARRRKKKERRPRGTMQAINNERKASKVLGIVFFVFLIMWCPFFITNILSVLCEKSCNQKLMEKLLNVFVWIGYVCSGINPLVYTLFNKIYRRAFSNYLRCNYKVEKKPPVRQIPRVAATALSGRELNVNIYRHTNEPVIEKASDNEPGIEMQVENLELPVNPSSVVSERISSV
Method: as §1, §2, §3

Alpha1B = target: T5, Alpha1B (Homo sapiens, UniProt P35368)
T5 construct: NIMH PDSP
T5 sequence (P35368 1-520): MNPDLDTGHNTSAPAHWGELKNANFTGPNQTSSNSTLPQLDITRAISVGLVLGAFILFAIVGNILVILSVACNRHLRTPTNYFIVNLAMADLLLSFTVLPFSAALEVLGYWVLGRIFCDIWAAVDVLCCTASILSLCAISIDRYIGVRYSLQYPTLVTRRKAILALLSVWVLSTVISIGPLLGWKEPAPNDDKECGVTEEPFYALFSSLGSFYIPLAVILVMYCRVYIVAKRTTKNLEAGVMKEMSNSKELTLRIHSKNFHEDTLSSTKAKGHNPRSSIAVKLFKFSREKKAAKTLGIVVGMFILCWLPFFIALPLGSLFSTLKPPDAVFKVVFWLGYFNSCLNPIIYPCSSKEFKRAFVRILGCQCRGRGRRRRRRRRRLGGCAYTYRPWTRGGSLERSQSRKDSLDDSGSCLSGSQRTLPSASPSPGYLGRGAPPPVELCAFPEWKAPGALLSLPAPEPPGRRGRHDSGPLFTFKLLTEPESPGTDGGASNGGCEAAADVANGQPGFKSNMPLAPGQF
Method: as §1, §2, §3

[1] = quadruplicate, read-out: Mean±SD % inhibition
[2] = replicate 1, read-out: % Inhibition 1
[3] = replicate 2, read-out: % Inhibition 2
[4] = replicate 3, read-out: % Inhibition 3
[5] = replicate 4, read-out: % Inhibition 4

T1 sequence (P41595 whole entry, species assumed): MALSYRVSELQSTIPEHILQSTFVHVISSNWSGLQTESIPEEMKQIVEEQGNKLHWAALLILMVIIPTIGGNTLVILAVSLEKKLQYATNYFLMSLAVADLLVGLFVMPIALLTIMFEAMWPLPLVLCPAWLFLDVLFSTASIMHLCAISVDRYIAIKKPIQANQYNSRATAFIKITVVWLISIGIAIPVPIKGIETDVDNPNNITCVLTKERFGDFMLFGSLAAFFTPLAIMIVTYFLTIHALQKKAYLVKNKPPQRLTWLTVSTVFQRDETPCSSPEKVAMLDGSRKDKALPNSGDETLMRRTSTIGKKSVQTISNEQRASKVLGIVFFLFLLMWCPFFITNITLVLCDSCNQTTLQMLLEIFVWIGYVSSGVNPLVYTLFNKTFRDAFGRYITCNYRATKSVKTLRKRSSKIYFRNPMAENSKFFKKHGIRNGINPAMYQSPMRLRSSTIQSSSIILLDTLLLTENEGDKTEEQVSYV

**Q.** Which inhibition at 10 µM (5-HT2B; [1]) does the source give for `COc1ccnc(N2CCC3(CCCN(Cc4cn(C)c5ccccc45)C3=O)CC2)n1` [CW24] here?
**A.** 21.6 ± 7.7%

**Q.** What about the inhibition at 10 µM (5-HT2B; [2]) of the same molecule?
**A.** 45.9%

**Q.** What about the inhibition at 10 µM (5-HT2B; [3]) of the same molecule?
**A.** 11.3%

**Q.** What about the inhibition at 10 µM (5-HT2B; [4]) of the same molecule?
**A.** 11.2%

**Q.** What about the inhibition at 10 µM (5-HT2B; [5]) of the same molecule?
**A.** 17.8%

**Q.** What about the inhibition at 10 µM (5-HT1A; [1]) of the same molecule?
**A.** -10.2 ± 8.4%

**Q.** What about the inhibition at 10 µM (5-HT1A; [2]) of the same molecule?
**A.** -4.55%

**Q.** And the inhibition at 10 µM (5-HT1A; [3])?
**A.** -4.08%

**Q.** And the inhibition at 10 µM (5-HT1A; [4])?
**A.** -22.1%

**Q.** And the inhibition at 10 µM (5-HT1A; [5])?
**A.** -9.84%

**Q.** What about the inhibition at 10 µM (H1; [1]) of the same molecule?
**A.** 10.5 ± 12.7%

**Q.** And the inhibition at 10 µM (H1; [2])?
**A.** 13%

**Q.** And the inhibition at 10 µM (H1; [3])?
**A.** -0.52%

**Q.** What about the inhibition at 10 µM (H1; [4]) of the same molecule?
**A.** 1.94%

**Q.** And the inhibition at 10 µM (H1; [5])?
**A.** 27.5%

**Q.** And the inhibition at 10 µM (Alpha1A; [1])?
**A.** -7.99 ± 16.7%

**Q.** What about the inhibition at 10 µM (Alpha1A; [2]) of the same molecule?
**A.** 17%

**Q.** What about the inhibition at 10 µM (Alpha1A; [3]) of the same molecule?
**A.** -16.2%

**Q.** And the inhibition at 10 µM (Alpha1A; [4])?
**A.** -17.6%

**Q.** And the inhibition at 10 µM (Alpha1A; [5])?
**A.** -15.1%

**Q.** What about the inhibition at 10 µM (H2; [1]) of the same molecule?
**A.** 24.2 ± 1.43%

**Q.** And the inhibition at 10 µM (H2; [2])?
**A.** 25.4%

**Q.** What about the inhibition at 10 µM (H2; [3]) of the same molecule?
**A.** 24.4%

**Q.** And the inhibition at 10 µM (H2; [4])?
**A.** 24.8%

**Q.** What about the inhibition at 10 µM (H2; [5]) of the same molecule?
**A.** 22.1%

**Q.** And the inhibition at 10 µM (5-HT2C; [1])?
**A.** 14.3 ± 40.6%

**Q.** And the inhibition at 10 µM (5-HT2C; [2])?
**A.** 28.8%

**Q.** And the inhibition at 10 µM (5-HT2C; [3])?
**A.** -38.5%

**Q.** What about the inhibition at 10 µM (5-HT2C; [4]) of the same molecule?
**A.** 8.5%

**Q.** And the inhibition at 10 µM (5-HT2C; [5])?
**A.** 58.2%

**Q.** What about the inhibition at 10 µM (Alpha1B; [1]) of the same molecule?
**A.** -20.7 ± 12.8%

**Q.** And the inhibition at 10 µM (Alpha1B; [2])?
**A.** -6.11%

**Q.** What about the inhibition at 10 µM (Alpha1B; [3]) of the same molecule?
**A.** -16.3%

**Q.** And the inhibition at 10 µM (Alpha1B; [4])?
**A.** -36.7%

**Q.** And the inhibition at 10 µM (Alpha1B; [5])?
**A.** -23.6%
